Measurements published in patent US20200216906A1, “METHODS AND COMPOSITIONS RELATING TO THE DIAGNOSIS AND TREATMENT OF CANCER” (PRESIDENT AND FELLOWS OF HARVARD COLLEGE, priority 2015, published 2020).
“Also recorded” adds a separate entry of the source. Like-named read-outs stand apart in the source and are kept apart here. Starred links: 1 amine or outer side, 2 acyl side, 3 side chain; linkers in the order of their positions; H or OH if unused. Positions of bridges follow the written chain, without caps; N, C: chain ends. Non-standard residues stand in square brackets, D forms with d. Residues, ends and D or L forms follow the SMILES beside them. Chains are numbered I, II in the order given. Actinocin(9to1) = Cc1c2oc3c(C)ccc(C(=O)[*:1])c3nc-2c(C(=O)[*:2])c(N)c1=O; NMeV = CN[C@H](C(=O)O)C(C)C; Sar = CNCC(=O)O

Experiments:
ABCG2 = molecular target: T1, ABCG2 (Homo sapiens, UniProt Q9UNQ0); conditions: Cusatis and Sparreboom, 2008; cited from earlier work
T1 sequence (Q9UNQ0 1-655): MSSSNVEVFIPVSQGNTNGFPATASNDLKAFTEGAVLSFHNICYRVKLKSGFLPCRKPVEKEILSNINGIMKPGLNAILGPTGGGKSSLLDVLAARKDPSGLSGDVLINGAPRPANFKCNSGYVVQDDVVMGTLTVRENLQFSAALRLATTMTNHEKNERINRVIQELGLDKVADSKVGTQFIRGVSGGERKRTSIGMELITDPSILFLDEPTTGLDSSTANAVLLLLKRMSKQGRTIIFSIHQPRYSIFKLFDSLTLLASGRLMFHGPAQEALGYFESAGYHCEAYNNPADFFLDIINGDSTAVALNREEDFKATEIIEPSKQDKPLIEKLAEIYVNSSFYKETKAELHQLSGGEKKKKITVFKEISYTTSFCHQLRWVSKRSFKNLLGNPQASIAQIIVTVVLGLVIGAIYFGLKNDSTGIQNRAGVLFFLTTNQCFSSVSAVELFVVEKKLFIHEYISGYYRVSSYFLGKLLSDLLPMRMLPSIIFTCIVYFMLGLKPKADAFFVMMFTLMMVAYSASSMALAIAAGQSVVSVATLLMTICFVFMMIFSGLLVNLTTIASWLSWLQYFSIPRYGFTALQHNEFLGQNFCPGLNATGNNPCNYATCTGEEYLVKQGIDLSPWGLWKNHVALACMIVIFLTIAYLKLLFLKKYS

[1] = tested on: Panc02.13 cells expressing the YAPS6A mutant; assay: 3D spheroid growth assay, Panc02.13 cells expressing YAPS6A; type: cell-based, human; conditions: YAP activity increased
[2] = tested on: pancreatic cancer cell lines; assay: Kinetic cell growth assay, panel of pancreatic cancer cell lines; type: cell-based, human; conditions: for Dependence of cellular response on cell crowding: seven PDAC cell lines, threshold >100 fold difference in EC50; for Density dependence of efficacy: seven pancreatic cancer cell lines, sparse and dense conditions
Experimental: (§1) The effect of gemcitabine on pancreatic cancer cell growth was studied using a kinetic cell growth assay. Pancreatic cancer cells were plated on 96-well plates (Essen ImageLock, Essen Instruments, MI, US) at varying densities (2-4×10^3 for low density or 15-20×10^3 for high density experiments). Small molecule inhibitors at different doses were added 24 hours after plating and cell confluence was monitored with Incucyte Live-Cell Imaging System and software (Essen Instruments). Confluence was observed every hour for 48-144h or until the control (DMSO only) samples reached 100% confluence.
FIG. 20A illustrates the kinetic cell growth assay to determine the effect of gemcitabine in a panel of pancreatic cancer cell lines. Cells are plated at low crowding conditions (10-25% confluence) and 24 hours later exposed to gemcitabine in a dose-dependent manner. They are imaged every 1-3 hours until control (vehicle) treated cells reach 100% confluence. This assay is not confounded by the fact that the time required for each cell line to reach 100% confluence may be very different (as the cell lines have different doubling times). A dose response effect of gemcitabine on cell growth for 16 pancreatic cancer cell lines is shown in FIGS. 20B, 3, 31A-31C and 28, where the range of previous studies is also shown. […] Similar responses to gemcitabine were found in liver cancer cell lines (Huh7 and FOCUS) and untransformed (HEK293) cell lines (FIGS. 3, 31A-31C).
as §1, with “Kinetic Cell growth assay. The” for “The”, “(2-4X103” for “(2-4×10^3”, “15-20X103” for “15-20×10^3”, “Incucyte™” for “Incucyte”

[3] = tested on: Panc02.13 cells expressing YAPS6A construct; assay: Kinetic cell growth assay, Panc02.13 cells expressing YAPS6A; type: cell-based, human; conditions: Homo sapiens, YAPS6A construct
Experimental: (§2) Panc02.13 cells were used to express YAPS6A (or vector controls) under sparse and dense cultures. Expression was confirmed by confocal microscopy (data not shown). Suppression of the Hippo pathway by expression of non-phospho, active form of YAP (YAPS6A) sensitized pancreatic cancer cells to gemcitabine and 5-FU (FIGS. 6 and 7). Apoptosis was measured by immunobloting with cleaved caspases 3/7 or PARP. Blots were also stained with anti-β-actin for loading control. The effect of Hippo pathway suppression on gemcitabine and 5-FU senstitization was maintained in 3D spheroid culture (FIG. 8). The effects of eleven cytotoxic drugs on the growth of Panc02.13 cells expressing vector only or YAPS6A construct grown under low or high densities were determined (Table 1).
as §1
Cell lines (Panc02.13, Panc10.05 or Miapaca2) were transfected with YAPS6A constructs (Addgene) using Lipofectamine™ (Invitrogen, Carlsbad, Calif.) following the manufacturer's instructions and 48 hour post-transfection selected in 5-10 μg/ml Blasticidin (InvivoGen, San Diego, Calif.). The clones screened for YAPS6A expression by Western blot. Stable cell lines were maintained in complete medium and 5 μg/ml Blasticidin.
as §1, with “Kinetic Cell growth assay. The” for “The”, “(2-4X103” for “(2-4×10^3”, “15-20X103” for “15-20×10^3”, “Incucyte™” for “Incucyte”

[4] = tested on: Panc02.13 cells expressing vector only (02.13-WT); assay: Kinetic cell growth assay, Panc02.13 cells expressing vector only; type: cell-based, human; conditions: Homo sapiens
Experimental: as §2, §1
as §1, with “Kinetic Cell growth assay. The” for “The”, “(2-4X103” for “(2-4×10^3”, “15-20X103” for “15-20×10^3”, “Incucyte™” for “Incucyte”

Panc02.13 cells = assay: 3D spheroid growth assay, Panc02.13 (GFP/parental) cells; conditions: for Efficacy in inhibiting cell growth when the Hippo pathway was not inhibited: Hippo-YAP pathway active; for Inhibition in high density growth conditions: 3D-spheroid screen
Experimental: Cancer cell lines were seeded at a 5×10^3 cells per well in a 96-well ultra-low adherence plates (Costar) and briefly spun down at 1000 rpm for 5 minutes. After 2 days, cells were treated with small molecule inhibitors at varying concentrations. Growth of spheroids was monitored using live cell imaging every 2-3 hours for 4-7 days in the Incucyte FLR™ system (Essen) or as end point assay using CellTiter-Glo™ luminescent cell viability assay (Promega).
A dose response curve for each inhibitor is calculated based on control (no inhibitor/DMSO) treated wells.
Cancer cell lines were seeded at a 5×10^3 cells per well in a 96-well ultra-low adherence plates (Costar) and briefly spun down at 1000 rpm for 5 minutes. After 2 days, cells were treated with small molecule inhibitors at varying concentrations. Growth of spheroids was monitored using live cell imaging every 2-3 hours for 4-7 days in the Incucyte ZOOM™ system (Essen) or as end point assay using CellTiter-Glo™ luminescent cell viability assay (Promega).

[5] = high density, read-out: High density (EC50, nM) 02.13-YAPS6A
[6] = low density, read-out: Low density (EC50, nM) 02.13-YAPS6A
[7] = high density, read-out: High density (EC50, nM) 02.13-WT
[8] = low density, read-out: Low density (EC50, nM) 02.13-WT

## COc1cc([C@@H]2c3cc4c(cc3[C@@H](O[C@@H]3O[C@@H]5CO[C@@H](c6cccs6)O[C@H]5[C@H](O)[C@H]3O)[C@H]3COC(=O)[C@H]23)OCO4)cc(OC)c1O [teniposide]
ABCG2
  Substrate of ABCG2: substrates of ABCG2
[1]
  Efficacy in inhibiting cell growth when the Hippo pathway was inhibited: increased efficacy in inhibiting cell growth; also recorded: particularly significant inhibitory activity

## CC[C@@]1(O)C(=O)OCc2c1cc1n(c2=O)Cc2cc3ccccc3nc2-1 [Camtothecin, Camptothecin]
[1]
  Efficacy in inhibiting cell growth when the Hippo pathway was inhibited: increased efficacy in inhibiting cell growth
[2]
  Dependence of cellular response on cell crowding: weak or no correlation with cell density
  Density dependence of efficacy: density-dependent
[3]; [5]
  EC50: 9 nM
[3]; [6]
  EC50: 6 nM
[4]; [7]
  EC50: 15 nM
[4]; [8]
  EC50: 5.2 nM

## CC(C)C[C@H](NC(=O)[C@H](Cc1ccccc1)NC(=O)c1cnccn1)B(O)O [bortezomib]
Panc02.13 cells
  Efficacy in inhibiting cell growth when the Hippo pathway was not inhibited: effective in preventing cancer cell growth independent of the state of Hippo-YAP signaling pathway activity; also recorded: efficacious in inhibiting cell growth

## COc1cccc2c1C(=O)c1c(O)c3c(c(O)c1C2=O)C[C@@](O)(C(=O)CO)C[C@@H]3O[C@H]1C[C@H](N)[C@H](O)[C@H](C)O1 [Doxorubicin]
Panc02.13 cells
  Efficacy in inhibiting cell growth when the Hippo pathway was not inhibited: efficacious in inhibiting cell growth
[1]
  Efficacy in inhibiting cell growth when the Hippo pathway was inhibited: increased efficacy in inhibiting cell growth
[2]
  Dependence of cellular response on cell crowding: dependent on cell crowding
  Density dependence of efficacy: density-dependent
[3]; [5]
  EC50: 133 nM
[3]; [6]
  EC50: 68 nM
[4]; [7]
  EC50: 386 nM
[4]; [8]
  EC50: 35 nM

## Cc1c2oc3c(C)ccc(C(=O)N[C@@H]4C(=O)N[C@H](C(C)C)C(=O)N5CCC[C@H]5C(=O)N(C)CC(=O)N(C)[C@@H](C(C)C)C(=O)O[C@@H]4C)c3nc-2c(C(=O)N[C@@H]2C(=O)N[C@H](C(C)C)C(=O)N3CCC[C@H]3C(=O)N(C)CC(=O)N(C)[C@@H](C(C)C)C(=O)O[C@@H]2C)c(N)c1=O [dactinomycin] (I: T[dV]P[Sar][NMeV] / II: T[dV]P[Sar][NMeV]; ester I:1-I:C, II:1-II:C; linker I:N-II:N via Actinocin(9to1))
Panc02.13 cells
  Inhibition in high density growth conditions: significant inhibition
  Efficacy in inhibiting cell growth when the Hippo pathway was not inhibited: effective in preventing cancer cell growth independent of the state of Hippo-YAP signaling pathway activity; also recorded: efficacious in inhibiting cell growth

## CC(C)C[C@H](NC(=O)[C@H](CCc1ccccc1)NC(=O)CN1CCOCC1)C(=O)N[C@@H](Cc1ccccc1)C(=O)N[C@@H](CC(C)C)C(=O)[C@@]1(C)CO1 [carfilzomib]
Panc02.13 cells
  Inhibition in high density growth conditions: significant inhibition
  Efficacy in inhibiting cell growth when the Hippo pathway was not inhibited: effective in preventing cancer cell growth independent of the state of Hippo-YAP signaling pathway activity; also recorded: efficacious in inhibiting cell growth

## CC[C@@]1(O)C(=O)OCc2c1cc1n(c2=O)Cc2cc3c(CN(C)C)c(O)ccc3nc2-1 [topotecan]
ABCG2
  Substrate of ABCG2: substrates of ABCG2
[1]
  Efficacy in inhibiting cell growth when the Hippo pathway was inhibited: increased efficacy in inhibiting cell growth

## C1CN1c1nc(N2CC2)nc(N2CC2)n1 [triethylenemelamine]
Panc02.13 cells
  Efficacy in inhibiting cell growth when the Hippo pathway was not inhibited: demonstrated efficacy at higher doses

## CO[C@H]1C[C@@H]2CC[C@@H](C)[C@@](O)(O2)C(=O)C(=O)N2CCCC[C@H]2C(=O)O[C@H]([C@H](C)C[C@@H]2CC[C@@H](OCCO)[C@H](OC)C2)CC(=O)[C@H](C)/C=C(\C)[C@@H](O)[C@@H](OC)C(=O)[C@H](C)C[C@H](C)/C=C/C=C/C=C/1C [Everolimus]
Panc02.13 cells
  Efficacy in inhibiting cell growth when the Hippo pathway was not inhibited: demonstrated efficacy at higher doses

## COc1cccc2c1C(=O)c1c(O)c3c(c(O)c1C2=O)C[C@@](O)(C(C)=O)C[C@@H]3O[C@H]1C[C@H](N)[C@H](O)[C@H](C)O1 [daunorubicin]
Panc02.13 cells
  Efficacy in inhibiting cell growth when the Hippo pathway was not inhibited: efficacious in inhibiting cell growth
[1]
  Efficacy in inhibiting cell growth when the Hippo pathway was inhibited: increased efficacy in inhibiting cell growth

## CNC(=O)c1ccc(N2C(=S)N(c3ccc(C#N)c(C(F)(F)F)c3)C(=O)C2(C)C)cc1F [enzalutamide]
Panc02.13 cells
  Efficacy in inhibiting cell growth when the Hippo pathway was not inhibited: effective in preventing cancer cell growth independent of the state of Hippo-YAP signaling pathway activity; also recorded: efficacious in inhibiting cell growth

## COC(=O)C[C@](O)(CCCC(C)(C)O)C(=O)O[C@@H]1C(OC)=C[C@]23CCCN2CCc2cc4c(cc2[C@H]13)OCO4 [omacetaxine mepesuccinate]
Panc02.13 cells
  Efficacy in inhibiting cell growth when the Hippo pathway was not inhibited: effective in preventing cancer cell growth independent of the state of Hippo-YAP signaling pathway activity; also recorded: efficacious in inhibiting cell growth

## Nc1nc(Cl)nc2c1ncn2[C@H]1C[C@H](O)[C@@H](CO)O1 [cladribine]
ABCG2
  Substrate of ABCG2: substrates of ABCG2
[1]
  Efficacy in inhibiting cell growth when the Hippo pathway was inhibited: increased efficacy in inhibiting cell growth; also recorded: particularly significant inhibitory activity

## CN(Cc1cnc2nc(N)nc(N)c2n1)c1ccc(C(=O)N[C@@H](CCC(=O)O)C(=O)O)cc1 [methotrexate]
ABCG2
  Substrate of ABCG2: substrates of ABCG2
[1]
  Efficacy in inhibiting cell growth when the Hippo pathway was inhibited: increased efficacy in inhibiting cell growth; also recorded: particularly significant inhibitory activity

## O=C1c2c(O)ccc(O)c2C(=O)c2c(NCCNCCO)ccc(NCCNCCO)c21 [mitoxantrone]
ABCG2
  Substrate of ABCG2: substrates of ABCG2
[1]
  Efficacy in inhibiting cell growth when the Hippo pathway was inhibited: increased efficacy in inhibiting cell growth; also recorded: particularly significant inhibitory activity

## CCCCC(=O)OCC(=O)[C@]1(O)Cc2c(O)c3c(c(O)c2[C@@H](O[C@H]2C[C@H](NC(=O)C(F)(F)F)[C@H](O)[C@H](C)O2)C1)C(=O)c1c(OC)cccc1C3=O [valrubicin]
Panc02.13 cells
  Efficacy in inhibiting cell growth when the Hippo pathway was not inhibited: efficacious in inhibiting cell growth
[1]
  Efficacy in inhibiting cell growth when the Hippo pathway was inhibited: increased efficacy in inhibiting cell growth
